Test results published in publication PMC6797808, “Fucosylated inhibitors of recently identified bangle lectin from Photorhabdus asymbiotica” (Scientific Reports, 2019).

Target: PHL (Photorhabdus asymbiotica, UniProt C7BLE4)
Assay: SPR competitive inhibition of PHL binding to α-L-fucoside sensor chip
Conditions: for IC50: 25 °C, three independent measurements; for β L-Fuc (affinity improvement factor): IC50,basic unit/(valency × IC50,ligand), basic unit L-Fuc; for PotencyL-Fuc: IC50 L-fucose / IC50 ligand; for β Azide1 (affinity improvement factor): basic unit azide 1
Procedure: To analyse the competitive inhibition of PHL binding to a multivalent surface, the surface plasmon resonance (SPR) technique was employed. A sensor chip presenting α-L-fucopyranoside residues was treated with a constant concentration of PHL, while an increasing concentration of the ligands was used to determine IC50 (Table 2, Fig. 3). […] To assess the contribution of valency to the affinity increase, an affinity improvement factor β was calculated as the relationship IC50,basic unit/(valency × IC50,ligand)[30].
Surface plasmon resonance (SPR) experiments were performed on a BIAcore T200 instrument (GE Healthcare, UK) at 25 °C, using buffer A supplemented with 0.05% Tween 20 as a running buffer. α-L-fucoside was immobilized onto CM5 sensor chip (GE Healthcare, UK) covered with a carboxymethylated dextran matrix. The sensor chip surface was activated with N-ethyl-N-(3-dimethylaminopropyl)carbodiimide/N-hydroxysuccinimide solution and then coated with streptavidin using the manufacturer’s standard protocol using HBS buffer (10 mM HEPES, 150 mM NaCl, 0.05% Tween 20, pH 7. 5). Unreacted groups were blocked with 1 M ethanolamine-HCl, pH 8.5. Biotinylated carbohydrate (biotinilated monomeric probes, Lectinity, Russia) was injected onto particular measuring channel and pure biotin on blank channel at a flow rate of 5 μl/min.
SPR inhibition measurements were carried out on measuring channel with L-fucoside at a flow rate of 5 µl/min. PHL was diluted to a concentration of 20 μg/ml by the buffer A supplemented with 0.05% Tween 20, mixed 1:1 (v/v) with various concentrations of inhibitors (500–5 μM) in the same buffer and injected onto the sensor chip. The response of lectin bound to the sugar surface at equilibrium was plotted against the concentration of inhibitor in order to determine IC50 (concentration of inhibitor resulting in 50% inhibition of binding). As IC50 is not a constant and depends on the experimental set-up, a parameter called potency was used for characterization. The potency of a tested inhibitor is the ratio of IC50 of a chosen standard inhibitor (in this case L-fucose) and the inhibitor in question. Pure PHL lectin was used as a control (0% inhibition) and channel with pure biotin served as a blank. IC50 was determined from triplicates.

Chain of PHL (C7BLE4 entry or part of it): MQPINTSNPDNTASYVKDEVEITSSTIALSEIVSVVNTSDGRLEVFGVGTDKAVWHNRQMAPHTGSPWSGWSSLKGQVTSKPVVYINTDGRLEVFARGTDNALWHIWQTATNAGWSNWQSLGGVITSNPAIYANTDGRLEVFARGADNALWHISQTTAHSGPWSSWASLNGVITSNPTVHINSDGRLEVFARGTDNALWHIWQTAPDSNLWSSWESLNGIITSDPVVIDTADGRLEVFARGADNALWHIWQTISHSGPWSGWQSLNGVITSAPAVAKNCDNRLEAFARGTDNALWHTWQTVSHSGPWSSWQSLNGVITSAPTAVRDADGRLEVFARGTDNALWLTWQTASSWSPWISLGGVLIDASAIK

Row | Compound | IC50 [µM] | β L-Fuc (affinity improvement factor) | PotencyL-Fuc | β Azide1 (affinity improvement factor) | PotencyAzide1 (relative to azide 1)
1 | C[C@@H]1O[C@@H](CCN=[N+]=[N-])[C@@H](O)[C@H](O)[C@@H]1O [Azide 1] | 11.5 ± 1.4 | 32 | 32 | 1 | –
2 | C[C@@H]1O[C@@H](CCn2cc(COCC(COCc3cn(CC[C@@H]4O[C@@H](C)[C@@H](O)[C@@H](O)[C@@H]4O)nn3)(COCc3cn(CC[C@@H]4O[C@@H](C)[C@@H](O)[C@@H](O)[C@@H]4O)nn3)COCc3cn(CC[C@@H]4O[C@@H](C)[C@@H](O)[C@@H](O)[C@@H]4O)nn3)nn2)[C@@H](O)[C@H](O)[C@@H]1O [Dendrimer 8] | 0.188 ± 0.037 | 481 | 1,922 | approximately 15 | 65
